Tested on: DBA/1 mice
Experiment: Audiogenic seizures (AGSz) and S-IRA in DBA/1 mice, initial testing protocol (30 min, 12 h, 24 h, then 24 h intervals)
Format: in vivo, mouse
Description: These studies involved age matched (<80 days) male DBA/1 mice obtained from ENVIGO. Because there were no significant sex differences in the AGSz incidence (frequency), severity and S-IRA susceptibility in DBA/1 mice, males were used in this study. The mice were primed as described in previous studies (Faingold et al., (2010). Epilepsy Behav. 17:436-40; Faingold, et al. (2011) Brain Res. 1418:104-10; Faingold, et al., (2011) Epilepsy Behav. 22:186-90). Briefly, the mice were maintained on an ad libitum diet under a 12 h light-dark cycle in a temperature and humidity-controlled laboratory animal medicine facility. Starting at postnatal day 23-25, the mice were primed and tested for consistent susceptibility to AGSz and S-IRA by presenting an intense acoustic stimulus, as described previously.
The typical seizure semiology in the DBA/1 mice begins with a wild running phase, followed by clonic-tonic seizures and then tonic hind-limb extension that immediately leads to S-IRA during post-ictal behavioral depression (PID). The onset of S-IRA was visually determined by the occurrence of respiratory failure following loss of the righting reflex, relaxation of the pinnae, and then a generalized loss of muscle tone. These behaviors are reliable indicators of imminent sudden death in DBA mice. Resuscitation was initiated within 10 s after pinna relaxation and the generalized loss of muscle tone, which was effective in reversing S-IRA and reviving >90% of the mice. The mice were placed in a supine position, and a polyethylene tube (4.4 mm external diameter) connected to the outflow of a rodent respirator (Harvard Apparatus 680), pumping one cc of room air at 200 strokes/min, was the placed over the nostrils, which produced observable displacement of the chest. Respiratory support was provided until spontaneous breathing rhythm returned, which required ˜19 sec. The mice were monitored until they regained the righting reflex and then returned to their home cage. Video recordings of seizure behaviors and recovery were made for off-line evaluation and analysis, including the duration of PID, as indicated by time from muscle tone loss to return of the righting reflex.
The experiments herein disclosed examined the dose-response relationship of FFA (10-40 mg/kg, i.p.) on AGSz-induced behaviors in DBA/1 mice compared to vehicle (saline) treated control mice using different seizure-testing protocols. This initial protocol involved induction of AGSz at 30 min, 12 h and 24 h after drug administration, and subsequently at 24 h intervals until susceptibility to S-IRA returned. These studies were aimed at determining whether FFA can reduce the incidence (frequency) and severity of AGSz and susceptibility to S-IRA. […] To determine the effect of FFA on the severity of AGSz in DBA/1 mice, the ordinal scoring system of De Sarro and coworkers was used: no seizure=0; wild running=1; clonic seizure=2; tonic seizure=3; death/S-IRA=4. The median effective dose (ED50) for FFA for blocking AGSz at 30 min following the i.p. injection in DBA/1 mice was calculated using a second order polynomial equation (y=65.113x^2-2.0715x-63.578) that gave the best fit (R^2=0.9989).
The videos of seizure behaviors were analyzed visually, and the incidence (frequency) of AGSz, seizure severity, and incidence (frequency) of S-IRA following drug treatment were compared statistically to vehicle controls using the Chi-square, Mann-Whitney U or paired samples t-test with SPSS software. The ED50 was calculated using SigmaPlot 13 and Microsoft® Excel. The experimental protocols used in these studies were approved by the Laboratory Animal Care and Use Committee of Southern Illinois University School of Medicine, which are in accordance with National Institutes of Health guidelines for the care and use of laboratory animals. Measures to minimize animal usage as well as pain and discomfort were included in these procedures.

[1] = 20 and 40 mg/kg i.p., starting at 30 min, vs saline

CCNC(C)Cc1cccc(C(F)(F)F)c1 (racemic) [FFA, 3-trifluoromethyl-N-ethylamphetamine]
incidence (frequency) of S-IRA (10 mg/kg): not affected
incidence of tonic seizures (10 mg/kg): not affected
incidence (frequency) of AGSz (10 mg/kg i.p.): No significant effect
AGSz severity (10 mg/kg, at 12 h): significantly reduced
reduction of S-IRA (10 mg/kg, at 12 h): 36.4%
reduction of tonic seizure (10 mg/kg, at 12 h): 54.6%
mice showing S-IRA blockade following tonic seizure (selective S-IRA block) (10 mg/kg, at 12 h, not statistically significant): 18.2%
duration of AGSz blockade (15 mg/kg): < 24 h
onset of AGSz blockade (15 mg/kg): 12 h
tonic seizure blocking effect (15 mg/kg): delayed and transient
return of maximal seizure severity (20 mg/kg): 24 h
duration of seizure severity decrease (40 mg/kg): up to 8 days
mice continuing to show reduced susceptibility to tonic AGSz and S-IRA for up to 8 days (40 mg/kg): 33.3%
return of maximal seizure severity (40 mg/kg): 48 h
time at which reduction in severity score occurred (10 and 15 mg/kg): 12 h
incidence (frequency) of AGSz (15, 20 and 40 mg/kg i.p. vs saline treated controls): significantly reduce
incidence (frequency) of S-IRA (15, 20 and 40 mg/kg i.p., beginning at 30 min, vs saline): significant reduction
duration of reductions of seizure incidence, severity and S-IRA susceptibility (20-40 mg/kg): ≥ 48 h
susceptibility to AGSz (20 and 40 mg/kg i.p., at 30 minutes, vs saline-treated controls): significantly reduced
median AGSz severity score [1]: significant reduction
tonic seizure incidence [1]: significant reduction
return of S-IRA susceptibility (FFA-treated mice, initial protocol): ≤ 72 h
ED50 (Mus musculus, ip, 0.5 h, 30 min after i.p. injection, read-out: ED50 for blockade of AGSz): 21.7 mg/kg
